Consider 16 compounds from the RepoRT retention time repository (doi:10.1021/ac300829f).

The nature of this data set: RP, Thermo Scientific Hypersil GOLD, 150 × 2.1 mm, 1.9 µm, 0.5 mL/min, estimated dead time 0.66 min; A: water + 0.1% formic acid, pH 3; B: acetonitrile + 0.1% formic acid, pH 3; gradient (min/%B) 0/0 2/0 13/100 15.5/100 19/0. To be noted: stereoisomer not certain.
Take `O=C(O)CNC(=O)c1ccccc1O` [o-hydroxyhippuric acid]: the LC retention time is 6.5 min.
In the case of `CN1CC(=O)NC1=N` [creatinine] it was 0.9 min.
On to `Cc1ncc(CO)c(C(=O)O)c1O` [4-pyridoxic acid], for which the LC retention time was 5.6 min.
On to `CCC(=O)OC(CC(=O)[O-])C[N+](C)(C)C` (stereo unspecified) [propionylcarnitine], for which the LC retention time is 3.6 min.
Regarding `NC(Cc1ccccc1)C(=O)O` (stereo unspecified) [phenylalanine], the LC retention time was 4.4 min.
For `O=C(O)CNC(=O)c1ccc(O)cc1` [p-hydroxyhippuric acid], the LC retention time is 4.9 min.
`O=C(O)CNC(=O)c1ccccc1` [hippuric acid]: the LC retention time is 5.8 min.
In the case of `CCC(C)(O)C(=O)O` (stereo unspecified) [2-hydroxy-2-methylbutyric acid (2-hydroxyisovaleric acid)] it was 4.6 min; in that of `CC(=O)NCCCCN` [N-acetylputrescine], 1.1 min; in that of `C[N+](C)(C)CC(CC(=O)[O-])OC(=O)CCCCC(=O)O` (stereo unspecified) [adipoylcarnitine], 5.3 min.
For `CC(C)CC(N)C(=O)O` (stereo unspecified) [leucine], the LC retention time is 1.1 min.
`CC(=O)NCCCNCCCCN` [N1-acetylspermidine]: the LC retention time is 0.9 min.
In the case of `NCc1[nH]cc(CCC(=O)O)c1CC(=O)O` [porphobilinogen] it was 4.7 min; in that of `Cc1ncc(C=O)c(CO)c1O` [pyridoxal  isomer], 1.1 min.
Under `[NH3+]CC(=O)N1CCCC1C(=O)[O-]` (stereo unspecified) [Gly-Pro] stands 1.1 min.
Regarding `Nc1ncnc2c1ncn2C1OC2COP(=O)(O)OC2C1O` (stereo unspecified) [cyclic AMP], the LC retention time is 1 min.
